Test results: PMC2654097, “Orally Available Selective Melanocortin-4 Receptor Antagonists Stimulate Food Intake and Reduce Cancer-Induced Cachexia in Mice” (PLoS ONE, 2009)
Read-outs that look alike come from different tables or passages of the source. Ends that are not written are not given here.

Experiments:
[1] = tested on: models of cancer-induced anorexia; parameters: method as in PMID 17584133, PMID 15800806; conditions: central administration; cited from earlier work
[2] = tested on: healthy mice; test: Light phase food intake; format: in vivo, NMRI mice; conditions: for effect on food intake, single dose comparison / effect on food intake: 4 hrs; for effect on food intake, single dose comparison: p<0.01 vs vehicle; for amount of food taken relative to vehicle control group: p.o., four hour post-treatment observation period; for effect on food intake: single oral treatment by gavage, dose range; for effect on food intake / amount of food taken relative to vehicle treated controls: light phase; for amount of food taken relative to vehicle treated controls: single s.c. injection 20 mg/kg, 4 hrs observation, p<0.01
Procedure: Six weeks old female NMRI mice (RCC Ltd.; Füllinsdorf, CH) were randomly assigned to the various experimental groups and the vehicle controls. They were housed in groups of 3 mice per cage. After at least one week of acclimatization in the experimental room, each animal's weight was determined and compound or vehicle was administered at appropriate concentrations 5 hrs after lights on. Then, food consumption of each cage group was recorded by weighing of the food hopper over a period of 4 hrs. Food intake was then determined as the difference in food hopper weight at the beginning and end of the 4 hrs following administration of the compound or the vehicle. Since the amount of food taken over 4 hrs by single animals was close to the limit of detection, we decided to rely on mean food amounts taken per cage (i.e., per 3 mice), whereby each treatment group consisted of n = 6 cages. The measured values from each cage were normalized to 100 g body weight (BW). Previous experiments indicated an excellent correlation between food intake and reduction of food weight.

[3] = tested on: C26 tumor bearing mice; test: C26 adenocarcinoma-induced cachexia model; format: in vivo, BALB/c mice; conditions: for tumor induced weight loss: 30 mg/kg p.o. once daily starting the day after tumor implantation; for body composition (lean body mass and fat mass) / tumor weight / mice that did not show cachexia (loss of more than 5% of body weight): 30 mg/kg p.o. once daily; for body composition (lean body mass and fat mass): day 0 vs day 15, MRI relaxometry; for tumor weight: end of experiment, mean±SEM, not different from Vehicle+Tumor controls; for mice that did not show cachexia (loss of more than 5% of body weight): n = 9, Vehicle+Tumor controls 2 of 9 and 3 of 9
Procedure: Six week old male BALB/c mice (Harlan, The Netherlands) were used. The animals were single housed, and after a one week adaption period randomly assigned to the experimental or control groups. For the tumor implantation the mice were anaesthetized with 200 µl of ketamine/xylazine. Approximately 1×10^6 C26 cells suspended in phosphate buffered saline were then implanted unilaterally in the flank of the mice by subcutaneous injection. The non-tumor controls underwent the same procedure but received PBS injection only (n = 9 per group). Starting on the first day after tumor implantation, compounds or vehicle were administered orally in 5 ml/kg 1–2 hrs before the onset of the dark phase. Food intake and body weight were recorded daily. Lean and fat mass of each animal were determined by MRI relaxometry (EchoMRI-500, Echo Medical Systems, Houston, TX, USA) prior to tumor inoculation (day 0) and at the end of the experiment after removal of the tumor (typically day 15).

[4] = Brain and plasma concentrations in vivo; conditions: 60 mg/kg p.o., CD-1 mice; for Brain AUC / Plasma AUC: 0-6 hr; for Brain/plasma ratio: calculated from AUC
Procedure: Twelve weeks old male CD-1 (Hilltop Lab Animals, PA, USA) mice were dosed by gavage with either SNT207707 or SNT207858 at 60 mg/kg (n = 9 per compound). At 1, 3, and 6 hrs post-dose, 3 mice from each compound group were euthanized with CO2. Blood was collected by cardiac puncture, plasma was isolated immediately and then kept on dry ice until analysis. Brains were removed, rinsed with saline solution and stored at −80°C until analysis. Levels of the compound were determined by HPLC followed by mass spectrometry (MS/MS). Areas under the curve (AUC) of plasma and brain levels were computed from measured levels at 1, 3 and 6 hrs post-dose. Brain/plasma ratios were then calculated based on the AUCs. To assess the integrity of the blood-brain-barrier all animals were co-dosed with 10 mg/kg Atenolol.

[5] = target: MC-4 receptor; parameters: method as in earlier work; conditions: binding; read-out: IC50 (binding) / affinity on the MC-4 receptor; cited from earlier work
[6] = target: MC-4 receptor; parameters: method as in earlier work; conditions: function; cited from earlier work
[7] = tested on: MC-3; parameters: method as in earlier work; conditions: MC-4 vs. MC-3; cited from earlier work
[8] = tested on: MC-5; parameters: method as in earlier work; conditions: MC-4 vs. MC-5; cited from earlier work
[9] = tested on: animals implanted with a colorectal tumor; parameters: method as in PMID 15027849; conditions: subcutaneous administration; cited from earlier work
[10] = tested on: animals implanted with Lewis lung carcinoma; conditions: subcutaneous administration; cited from earlier work

Brain AUC [4] [µM·h] | Plasma AUC [4] [µM·h] | Brain/plasma ratio [4] | Plasma peak ([4]; levels at 1, 3, 6 hrs) [nM] | Compound | food intake [1] | effect on food intake, single dose comparison ([2]; p.o. 120 mg/kg) | amount of food taken relative to vehicle control group [2] | effect on food intake [2] | amount of food taken relative to vehicle treated controls [2] | tumor induced weight loss [3] | body composition (lean body mass and fat mass) [3] | tumor weight [3] [g] | mice that did not show cachexia (loss of more than 5% of body weight) [3] | IC50 [5] [nM] | IC50 [6] [nM] | selectivity vs. MC-3 [7] | selectivity vs. MC-5 [8] | further results
– | – | – | – | SHU-9119 [reference compound] | increased food intake | – | – | – | – | – | – | – | – | – | – | – | – | –
– | – | – | – | AgRP: agouti-related protein, the endogenous inverse agonist at the MC-4 receptor (SSRRCVRLHESCLGQQVPCCDPCATCYCRFFNAFCYCRKLGTAMNPCSRT; ends and bridges not checked; cysteine pairing not given here; UniProt O00253 83-132, looked up) | increased food intake | – | – | – | – | – | – | – | – | – | – | – | – | –
0.437 | 4.405 | 0.10 | 1520 | CC[C@H](COc1cccnc1C1CCN(C(=O)[C@@H](Cc2ccc(Cl)cc2Cl)NC(=O)N2CCCC2)CC1)N1CCCC1 [SNT207858] | – | statistically significant increases in food intake | roughly up to four times | dose-dependently increased the food intake | roughly 3 fold | significantly reduced the tumor induced weight loss | loss of lean body mass and loss of fat mass was reduced | 1.11 ± 0.09 | 6 out of 9 | 22 | 11 | 170 fold | 40 fold | effect on food intake, single dose comparison ([2]; p.o. 60 mg/kg): statistically significant increases in food intake
2.307 | 6.373 | 0.36 | 1960 | CC(C)CCN(CCC(C)C)C(=O)c1ccc2nc(-c3ccc(C#N)cc3)c(CCCN3CCCC3)n2c1.Cl [SNT207707] | – | statistically significant increases in food intake | roughly up to four times | dose-dependently increased the food intake | roughly 3 fold | significantly reduced the tumor induced weight loss | loss of lean body mass and loss of fat mass was reduced | 1.03 ± 0.07 | 8 out of 9 | 8 | 5 | more than 200 fold | more than 200 fold | Brain peak ([4]; levels at 1, 3, 6 hrs): ~580 nM
– | – | – | – | COc1ccc(Br)cc1CCc1c(F)cccc1C1=NCCN1 [ML00253764, 2-[2-[2-(5-bromo-2-methoxyphenyl)-ethyl]-3-fluorophenyl]-4,5-dihydro-1H-imidazole] | – | – | – | – | – | – | – | – | – | – | – | – | – | cachexia [9]: efficacious in reducing cachexia; cachexia [10]: efficacious in reducing cachexia
